How the values were obtained:
[1] = target: T1, JAK3: Recombinant human kinase domain (Homo sapiens, UniProt P52333); assay: Determination of IC50 of Janus Kinase (JAK) inhibition, radioactive end-point 33P-ATP assay, JAK3; assay type: biochemical; conditions: ATP 1.5 uM, peptide 50 uM, 20 minutes, read-out: JAK3-INHIB-DR/v1~NO ADDITIVE~Enzyme_Conc = 100
T1 construct: JAK3: Recombinant human kinase domain from Millipore (Cat #14-629) or prepared; purchased Millipore 14-629

[2] = target: T2, recombinant human SYK360-635 (Homo sapiens, UniProt P43405); assay: Determination of IC50 of Spleen Tyrosine Kinase (SYK) inhibition, 33P ATP filtration assay; assay type: biochemical; conditions: SYK aa 360-635 0.5 nM; ATP 20 μM, peptide 5 μM, 0.1% BSA; read-out: SYK_ENZYME_FILTRATION/v1, BSA
T2 construct: made in house

T1 sequence (P52333 822-1111 limits assumed): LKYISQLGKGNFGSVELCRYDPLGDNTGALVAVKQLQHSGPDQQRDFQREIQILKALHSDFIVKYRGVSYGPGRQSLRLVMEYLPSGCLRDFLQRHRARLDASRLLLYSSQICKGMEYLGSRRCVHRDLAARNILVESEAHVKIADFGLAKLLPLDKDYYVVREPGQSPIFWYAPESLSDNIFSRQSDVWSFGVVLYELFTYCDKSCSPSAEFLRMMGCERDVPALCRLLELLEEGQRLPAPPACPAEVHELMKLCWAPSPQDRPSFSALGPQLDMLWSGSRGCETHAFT

Row | Compound | IC50 [1] | IC50 [2]
1 | C[C@H](CN1CC(F)C1)NC(=O)c1c[nH]c2ncc(-c3nn(C)c4cc(Cl)ccc34)nc12 [Example I-123, 2-(6-Chloro-1-methyl-1H-indazol-3-yl)-5H-pyrrolo[2,3-b]pyrazine-7-carboxylic acid [(R)-2-(3-fluoro-azetidin-1-yl)-1-methyl-ethyl]-amide] | 68.6 nM | 144 nM
2 | CC(CN1CCC(C#N)C1)NC(=O)c1c[nH]c2ncc(-c3nn(C)c4cc(Cl)ccc34)nc12 (stereo not shown) [Example I-125, 2-(6-Chloro-1-methyl-1H-indazol-3-yl)-5H-pyrrolo[2,3-b]pyrazine-7-carboxylic acid [2-(3-cyano-pyrrolidin-1-yl)-1-methyl-ethyl]-amide] | 29.3 nM | 83.5 nM
3 | CC(C)NC(=O)c1c[nH]c2ncc(-c3nn(C)c4cc(Cl)cc(F)c34)nc12 [Example I-127, 2-(6-Chloro-4-fluoro-1-methyl-1H-indazol-3-yl)-5H-pyrrolo[2,3-b]pyrazine-7-carboxylic acid isopropylamide] | 11 nM | 22.6 nM
4 | CC(C)NC(=O)c1c[nH]c2ncc(-c3nn(CCN(C)C)c4cc(Cl)cc(F)c34)nc12 [Example I-128, 2-[6-Chloro-1-(2-dimethylamino-ethyl)-4-fluoro-1H-indazol-3-yl]-5H-pyrrolo[2,3-b]pyrazine-7-carboxylic acid isopropylamide] | 13.3 nM | 186 nM
5 | CC(C)NC(=O)c1c[nH]c2ncc(-c3nn(CCN4CCOCC4)c4cc(Cl)cc(F)c34)nc12 [Example I-129, 2-[6-Chloro-4-fluoro-1-(2-morpholin-4-yl-ethyl)-1H-indazol-3-yl]-5H-pyrrolo[2,3-b]pyrazine-7-carboxylic acid isopropylamide] | 4.41 nM | 49.5 nM
6 | CC(C)NC(=O)c1c[nH]c2ncc(-c3nn(CCCN(C)C)c4cc(Cl)cc(F)c34)nc12 [Example I-131, 2-[6-Chloro-1-(3-dimethylamino-propyl)-4-fluoro-1H-indazol-3-yl]-5H-pyrrolo[2,3-b]pyrazine-7-carboxylic acid isopropylamide] | 7.06 nM | 39.8 nM
7 | CC(C)NC(=O)c1c[nH]c2ncc(-c3nn(CCCN4CCOCC4)c4cc(Cl)cc(F)c34)nc12 [Example I-132, 2-[6-Chloro-4-fluoro-1-(3-morpholin-4-yl-propyl)-1H-indazol-3-yl]-5H-pyrrolo[2,3-b]pyrazine-7-carboxylic acid isopropylamide] | 4.72 nM | 23.4 nM
8 | C[C@H](Cn1ccnc1)NC(=O)c1c[nH]c2ncc(-c3nn(C)c4cc(Cl)ccc34)nc12 [Example I-134, 2-(6-Chloro-1-methyl-1H-indazol-3-yl)-5H-pyrrolo[2,3-b]pyrazine-7-carboxylic acid ((R)-2-imidazol-1-yl-1-methyl-ethyl)-amide] | 67.3 nM | 482 nM
9 | Cn1nc(-c2cnc3[nH]cc(C(=O)N[C@H]4CCCOC4)c3n2)c2ccc(Cl)cc21 [Example I-138, 2-(6-Chloro-1-methyl-1H-indazol-3-yl)-5H-pyrrolo[2,3-b]pyrazine-7-carboxylic acid (S)-tetrahydro-pyran-3-ylamide] | 31.4 nM | 21.9 nM
10 | Cn1nc(-c2cnc3[nH]cc(C(=O)N[C@@H]4CCCOC4)c3n2)c2ccc(Cl)cc21 [Example I-139, 2-(6-Chloro-1-methyl-1H-indazol-3-yl)-5H-pyrrolo[2,3-b]pyrazine-7-carboxylic acid (R)-tetrahydro-pyran-3-ylamide] | 4.59 nM | 8.5 nM
11 | C[C@H](NC(=O)c1c[nH]c2ncc(-c3nn(C)c4cc(Cl)ccc34)nc12)C1CC1 [Example I-140, 2-(6-Chloro-1-methyl-1H-indazol-3-yl)-5H-pyrrolo[2,3-b]pyrazine-7-carboxylic acid ((S)-1-cyclopropyl-ethyl)-amide] | 1.11 nM | 9.15 nM

From US8658646B2, “Pyrrolopyrazine kinase inhibitors” (Hoffmann-LaRoche Inc., priority 2011, dated 2014)
